Reference: article PMC7303124, “RPamide neuropeptides NLP-22 and NLP-2 act through GnRH-like receptors to promote sleep and wakefulness in C. elegans” (Scientific Reports, 2020)
Values joined by “and” are separate entries in the source; they are usually repeats but may differ in a detail not shown here. Identical values can stand only once. Where a SMILES comes first, the peptide text is derived from it.

Key:
[1] = molecular target: T1, GNRR-3 (Caenorhabditis elegans, UniProt Q23265); assay: Receptor activation assay (aequorin calcium mobilization), GNRR-3 co-expressed with promiscuous Gα16 in CHO cells; format: cell-based, C. elegans; details: for EC50: CHO cells stably expressing apo-aequorin and Gα16, transiently transfected receptor, aequorin luminescence relative to total calcium response, mean EC50, N = 5–7 replicates, 95% confidence interval given; for Activation of GNRR-3 (in words): CHO/apo-aequorin/Gα16 calcium mobilization assay, peptides initially tested at 10 µM
T1 sequence (Q23265 1-395): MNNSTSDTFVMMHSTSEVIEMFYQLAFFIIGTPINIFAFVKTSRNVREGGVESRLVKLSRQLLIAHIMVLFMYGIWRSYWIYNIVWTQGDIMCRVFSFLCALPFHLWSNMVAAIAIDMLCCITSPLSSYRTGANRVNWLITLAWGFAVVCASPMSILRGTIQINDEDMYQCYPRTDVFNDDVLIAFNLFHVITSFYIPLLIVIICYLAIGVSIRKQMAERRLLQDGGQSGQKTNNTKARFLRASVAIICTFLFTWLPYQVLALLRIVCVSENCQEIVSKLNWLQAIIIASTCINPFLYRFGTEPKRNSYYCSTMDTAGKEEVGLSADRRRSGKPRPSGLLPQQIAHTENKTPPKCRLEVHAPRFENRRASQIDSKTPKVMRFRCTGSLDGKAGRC
Excerpt: (§1) We tested a C. elegans peptide library for the ability to activate these seven receptors using an in vitro calcium mobilization assay. We cloned and transiently expressed each of the seven GNRRs in Chinese hamster ovary (CHO) cells stably expressing apo-aequorin and the human promiscuous Gα16 protein. These cells were challenged with a synthetic library of over 340 C. elegans peptides of the RFamide (FLP) and neuropeptide-like protein (NLP) families. […] Peptides encoded by nlp-2 and nlp-23 potently activated GNRR-3 with EC50 values in the nanomolar range. By contrast, NLP-22 activated GNRR-3 with far lower potency (EC50 value > 6 µM), which may be physiologically irrelevant. GNRR-6 was potently activated by NLP-22 and NLP-23 peptides. Peptides encoded by nlp-2 also activated GNRR-6, although with a higher EC50 value than NLP-22 and NLP-23. […] In short, we identified the neuropeptides encoded by nlp-2, nlp-22 and nlp-23 as bioactive ligands of the GnRH/AKH-like receptors GNRR-3 and GNRR-6 in vitro.
(§2) Figure 2 NLP-2, NLP-22, and NLP-23 peptides activate GNRR-3 and GNRR-6 in vitro. Dose-response curves for GNRR-3 (A) and GNRR-6 (B) co-expressed in CHO cells with a promiscuous Gα16 protein are shown as relative (%) to the highest value (100% activation) after normalization to the total calcium response. Each data point represents the mean ± SEM of N = 5–7 replicates for each peptide. (C) Amino acid (AA) sequences of RPamide neuropeptides activating GNRR-3 and GNRR-6 with their respective mean EC50 values and 95% Confidence intervals.
(§3) Peptides were custom-synthesized by GL Biochem Ltd. All peptides were initially tested at a concentration of 10 µM. Receptor activating peptides were purified using reverse-phase HPLC and verified using MALDI TOF mass spectrometry. Peptide concentrations were determined with a bicinchoninic acid (BCA) assay. For receptor activation assays, peptides were first lyophilized and then diluted to the desired concentrations.
(§4) Chinese hamster ovary (CHO) cells stably expressing apo-aequorin and the promiscuous Gα16 subunit were used for receptor deorphanization (ES-000-A24, Perkin-Elmer). To characterize downstream signaling, CHO cells stably expressing apo-aequorin but lacking the promiscuous Gα16 protein were used (ES-000-A12, Perkin-Elmer). Cells were cultured in Dulbecco’s Modified Eagle’s Medium Nutrient Mixture Ham F-12 (DMEM/F-12, Invitrogen) to which 1% penicillin/streptomycin, 2.5 µg/ml amphotericin B, and 10% fetal bovine serum (Sigma-Aldrich) were added. Growth medium was supplemented with 250 µg/ml zeocin or 5 µg/ml puromycin, which serves as a selection reagent for CHO cells with or without the promiscuous Gα16 subunit, respectively. Cells were grown as a monolayer at 37 °C, 5% CO2 and high humidity. For transfection, 3.75 ml Opti-MEM I (Invitrogen), 7.5 µg pcDNA3.1 construct and 18.75 µl Plus reagent (Invitrogen) were gently mixed in a polystyrene tube. After incubation for 5 minutes at room temperature, 45 µl Lipofectamine LTX (Invitrogen) was added and gently mixed. The transfection reagent was incubated for 30 min at room temperature. Growth medium was removed leaving 3 ml and the transfection reagents were added dropwise to the cells. Transfected cells were grown overnight and 20 ml growth medium was added the next day. Cells were grown one more day before the assay at 28 °C.
(§5) Two days after transfection, CHO cells were detached from the surface of the culture flask using phosphate buffered saline with 0.2% EDTA and collected in 10 ml colorless DMEM/F-12 (11039, Gibco). Cell viability was measured using a NucleoCounter NC-100 (Chemometic). Cells were pelleted for 4 min at 800 rpm at room temperature and resuspended to a concentration of 5 × 10^6 cells/ml in colorless DMEM/F12 with 0.1% bovine serum albumin (BSA). 5 µM coelenterazine H (Invitrogen) was added to the cell suspension. […]

[2] = molecular target: T2, GNRR-6 (Caenorhabditis elegans, UniProt Q19399); assay: Receptor activation assay (aequorin calcium mobilization), GNRR-6 co-expressed with promiscuous Gα16 in CHO cells; format: cell-based, C. elegans; details: for EC50: CHO cells stably expressing apo-aequorin and Gα16, transiently transfected receptor, aequorin luminescence relative to total calcium response, mean EC50, N = 5–7 replicates, 95% confidence interval given; for Activation of GNRR-6 (in words): CHO/apo-aequorin/Gα16 calcium mobilization assay, peptides initially tested at 10 µM
T2 sequence (Q19399 1-400): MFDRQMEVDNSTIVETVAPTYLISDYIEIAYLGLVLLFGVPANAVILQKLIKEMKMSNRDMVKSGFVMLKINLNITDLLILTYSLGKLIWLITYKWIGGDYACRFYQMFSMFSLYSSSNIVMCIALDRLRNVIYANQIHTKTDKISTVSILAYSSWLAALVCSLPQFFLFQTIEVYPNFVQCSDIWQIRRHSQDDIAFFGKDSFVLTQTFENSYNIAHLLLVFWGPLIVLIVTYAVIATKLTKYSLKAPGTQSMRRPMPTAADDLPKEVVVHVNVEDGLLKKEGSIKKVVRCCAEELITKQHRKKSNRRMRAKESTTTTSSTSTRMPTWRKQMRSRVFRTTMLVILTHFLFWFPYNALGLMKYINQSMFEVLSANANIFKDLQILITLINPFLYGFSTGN
Excerpt: as §1, §2, §3, §4, §5

Molecule	EC50 [1]	EC50 [2] [nM]	Activation of GNRR-3 (in words) [1]	Activation of GNRR-6 (in words) [2]
CC[C@H](C)[C@H](NC(=O)[C@H](C)NC(=O)[C@@H](NC(=O)[C@@H](N)CO)[C@@H](C)CC)C(=O)NCC(=O)N[C@@H](CCCNC(=N)N)C(=O)N[C@@H](C)C(=O)NCC(=O)N[C@@H](Cc1ccccc1)C(=O)N[C@@H](CCCNC(=N)N)C(=O)N1CCC[C@H]1C(N)=O [NLP-22] (H-SIAIGRAGFRP-NH2; N-terminus assumed)	> 6000 nM and 6700 nM	4.1	activated these receptors in a dose-dependent manner	activated these receptors in a dose-dependent manner
CC[C@H](C)[C@H](NC(=O)[C@H](C)NC(=O)[C@H](CCSC)NC(=O)[C@@H](N)CO)C(=O)NCC(=O)N[C@@H](CCCNC(=N)N)C(=O)N[C@@H](C)C(=O)NCC(=O)N[C@@H](CCSC)C(=O)N[C@@H](CCCNC(=N)N)C(=O)N1CCC[C@H]1C(N)=O [NLP-23-2] (H-SMAIGRAGMRP-NH2; N-terminus assumed)	158 nM	6	activated these receptors in a dose-dependent manner	activated these receptors in a dose-dependent manner
LYISRQGFRPA [NLP-23-1, NLP-23 derived peptide … lacking the C-terminal glycine amidation target]	–	–	did not activate	did not activate

Further molecules by falling EC50 [2], results first:

EC50 [1]	EC50 [2] [nM]	Molecule	Activation of GNRR-3 (in words) [1]	Activation of GNRR-6 (in words) [2]
558 nM	542	CSCC[C@H](NC(=O)[C@H](C)NC(=O)[C@H](CCSC)NC(=O)[C@@H](N)CO)C(=O)NCC(=O)N[C@@H](CCCNC(=N)N)C(=O)N[C@@H](CC(C)C)C(=O)NCC(=O)N[C@@H](CC(C)C)C(=O)N[C@@H](CCCNC(=N)N)C(=O)N1CCC[C@H]1C(N)=O [NLP-2-2] (H-SMAMGRLGLRP-NH2; N-terminus assumed)	activated these receptors in a dose-dependent manner	activated these receptors in a dose-dependent manner
3300 nM	169	CSCC[C@H](NC(=O)[C@@H](N)CO)C(=O)N[C@@H](C)C(=O)N[C@@H](Cc1ccc(O)cc1)C(=O)NCC(=O)N[C@@H](CCCNC(=N)N)C(=O)N[C@@H](CCC(N)=O)C(=O)NCC(=O)N[C@@H](Cc1ccccc1)C(=O)N[C@@H](CCCNC(=N)N)C(=O)N1CCC[C@H]1C(N)=O [NLP-2-3] (H-SMAYGRQGFRP-NH2; N-terminus assumed)	activated these receptors in a dose-dependent manner	activated these receptors in a dose-dependent manner
81000 nM	135	CC[C@H](C)[C@H](NC(=O)[C@@H](N)CO)C(=O)N[C@@H](C)C(=O)N[C@@H](CC(C)C)C(=O)NCC(=O)N[C@@H](CCCNC(=N)N)C(=O)N[C@@H](CO)C(=O)NCC(=O)N[C@@H](Cc1ccccc1)C(=O)N[C@@H](CCCNC(=N)N)C(=O)N1CCC[C@H]1C(N)=O [NLP-2-1] (H-SIALGRSGFRP-NH2; N-terminus assumed)	activated these receptors in a dose-dependent manner	activated these receptors in a dose-dependent manner
